Here are results for 5 compounds from patent publication US11643419B2, “Compositions and methods for the treatment of xerostomia” (Cellix Bio Private Limited, priority 2016, dated 2023).

Values after ≈ are worked out from the molar mass of the structure shown. Like-named read-outs stand apart in the source and are kept apart here. Bounds are passed on as bounds.

The test system of assay [1] is oral pathogenic microorganisms. Conditions: cited from earlier work; for antimicrobial activity (in words): among long-chain fatty acids / against various oral microorganisms.
The test system of assay [2] is Candida Species. Conditions: cited from earlier work.
For assay [3], the system named is Candida Species. Nature of the assay: MIC against Candida Species. Format: cell-based. Conditions: printed conversion of 0.45 μmoles/ml.
The next assay has as its system C. albicans. Conditions: cited from earlier work.

With `CCCCC/C=C\C/C=C\C/C=C\CCCCC(=O)O` [GLA, gamma linoleic acid], the “antimicrobial activity (in words)” value in assay [1] was “antimicrobial activities”; in assay [1] (listed as 7-linoleic acid), “greatest antimicrobial activity”; in assay [1] (listed as gamma linoleic acid), “significant anti-microbial activity”. The “bactericidal at a concentration of” value in assay [1] (n-6 fatty acids GLA) is 25 µg/mL.

For `CCCCC/C=C\C/C=C\CCCCCCCC(=O)O` [Linoleic acid], in assay [1], the “antimicrobial activity (in words)” value is reported as “greatest antimicrobial activity”. In assay [1] (linoleic acid), the “bactericidal at a concentration of” value was 25 µg/mL. Further, the values for the MIC in the assay on Candida Species [2] and with Candida Species [3] were 450 µM (≈ 126 µg/mL) and 0.13 µg/mL (≈ 0.464 µM), respectively. Besides, in the assay with C. albicans, the “activity against C. albicans” value is less than 40%.

For the compound `CCCCC/C=C\C/C=C\C/C=C\C/C=C\CCCC(=O)O` [arachidonic acid], the “antimicrobial activity (in words)” value in assay [1] is reported as “greatest antimicrobial activity”.

Take `CCCCCCCCCCCCCCCC(=O)O` [palmitic acid]: the “antimicrobial activity (in words)” value in assay [1] was “greatest antimicrobial activity”.

Take `CCCCCC/C=C\CCCCCCCC(=O)O` [palmitoleic acid]: the “antimicrobial activity (in words)” value in assay [1] is listed as “greatest antimicrobial activity”.
